Laboratory results reported in patent US7943610B2, “Pyrazolopyridine-1,4-diamines and analogs thereof” (3M Innovative Properties Company, priority 2005, dated 2011).

Row | Compound | melting point
1 | CCCn1nc2c(N)nc3ccccc3c2c1N [Example 1, 2-Propyl-2H-pyrazolo[3,4-c]quinoline-1,4-diamine] | 253 °C (dec.)
2 | CCCn1nc2c(N)nc3ccccc3c2c1NCC [Example 2, N^1-Ethyl-2-propyl-2H-pyrazolo[3,4-c]quinoline-1,4-diamine] | 193 to 194 °C
3 | CCCn1nc2c(N)nc3ccccc3c2c1NCCC1CCN(C(=O)NC(C)C)CC1 [Example 5, 4-{2-[(4-Amino-2-propyl-2H-pyrazolo[3,4-c]quinolin-1-yl)amino]ethyl}-N-isopropylpiperidine-1-carboxamide] | 168 to 170 °C
4 | CCCn1nc2c(N)nc3ccccc3c2c1NCCC1CCN(C(C)=O)CC1 [Example 6, N^1-[2-(1-Acetylpiperidin-4-yl)ethyl]-2-propyl-2H-pyrazolo[3,4-c]quinoline-1,4-diamine] | 203 to 206 °C

The next lines start with the values.

Row | melting point | Compound
5 | 200 to 201 °C | CCCn1nc2c(N)nc3ccccc3c2c1NC [Example 35, N^1-Methyl-2-propyl-2H-pyrazolo[3,4-c]quinoline-1,4-diamine]
6 | 199 to 200 °C | CCCn1nc2c(N)nc3ccccc3c2c1NC(C)C [Example 36, N^1-Isopropyl-2-propyl-2H-pyrazolo[3,4-c]quinoline-1,4-diamine]
7 | 160 to 161 °C | CCCn1nc2c(N)nc3ccccc3c2c1NCc1ccccc1 [Example 37, N^1-Benzyl-2-propyl-2H-pyrazolo[3,4-c]quinoline-1,4-diamine]
